Columns and labels:
Assay in all cases: relative viability (nuclei count vs DMSO), 5 days (fraction); higher = more cells survive
Ibrutinib = compound: C=CC(=O)N1CCC[C@@H](n2nc(-c3ccc(Oc4ccccc4)cc3)c3c(N)ncnc32)C1 [Ibrutinib]
Summary of the method: (§1)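 In 1536-well plates, lung cancer cell lines rested overnight at 37 °C before five library-drug doses (not always all listed), √10 apart, were pinned onto vehicle-anchored plates. Nuclei were counted with MetaXpress from 4× Hoechst images taken after 5 days without medium change. Viability compares treated-well with vehicle-well nuclei as a median over plates, and plates needed control CV below 25% plus at least one doubling to pass.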

BMX-IN-1 = compound: C=CC(=O)Nc1cc(-n2c(=O)ccc3cnc4ccc(-c5ccc(NS(C)(=O)=O)cc5)cc4c32)ccc1C [BMX-IN-1]
Summary of the method: as §1

PAC-1 = compound: C=CCc1cccc(/C=N/NC(=O)CN2CCN(Cc3ccccc3)CC2)c1O [PAC-1]
Summary of the method: as §1

BMX-IN-1 + Crizotinib = compound: C=CC(=O)Nc1cc(-n2c(=O)ccc3cnc4ccc(-c5ccc(NS(C)(=O)=O)cc5)cc4c32)ccc1C [BMX-IN-1] + C[C@@H](Oc1cc(-c2cnn(C3CCNCC3)c2)cnc1N)c1c(Cl)ccc(F)c1Cl [Crizotinib] (partner 1 µM)
Summary of the method: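 Lung cancer cell lines, seeded in 1536-well plates, were treated the following day by pin tool with a single drug or with five library-drug doses (not always all listed) in √10 steps on top of a fixed anchor-drug dose. Cells were fixed and nuclei stained in one step after 5 days, and nuclei were counted. Relative viability is the nuclei count for treated wells divided by that for vehicle wells, reported as medians of duplicate plates.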

Row | Cell Line | relative viability (Ibrutinib; 0.005 µM) | relative viability (Ibrutinib; 0.01581 µM) | relative viability (Ibrutinib; 0.05 µM) | relative viability (Ibrutinib; 0.1581 µM) | relative viability (Ibrutinib; 0.5 µM) | relative viability (BMX-IN-1; 0.02 µM) | relative viability (BMX-IN-1; 0.2 µM) | relative viability (BMX-IN-1; 0.6325 µM) | relative viability (BMX-IN-1; 2 µM) | relative viability (PAC-1; 0.02 µM) | relative viability (PAC-1; 0.06325 µM) | relative viability (PAC-1; 0.2 µM) | relative viability (PAC-1; 2 µM) | relative viability (BMX-IN-1 + Crizotinib; first compound 0.02 µM) | relative viability (BMX-IN-1 + Crizotinib; first compound 0.2 µM) | relative viability (BMX-IN-1 + Crizotinib; first compound 0.6325 µM) | relative viability (BMX-IN-1 + Crizotinib; first compound 2 µM)
1 | NCI-H358 | 0.637 | 0.713 | 0.611 | 0.786 | 0.47 | 1.12 | 0.962 | 1.04 | 0.914 | 0.921 | 0.848 | 0.905 | 0.789 | 0.498 | 0.611 | 0.538 | 0.512
2 | NCI-H647 | 0.724 | 0.855 | 0.86 | 0.876 | 0.879 | 1.32 | 1.07 | 0.957 | 0.96 | 0.985 | 0.995 | 0.892 | 0.933 | 1.41 | 1.45 | 1.1 | 0.937
3 | HCC-366 | 1 | 0.962 | 0.968 | 0.913 | 1 | 1.13 | 1.09 | 1.05 | 1.04 | 0.997 | 0.979 | 1.02 | 1.03 | 0.582 | 1.01 | 0.586 | 0.703

— the supplement of paper PMC10307832
